Data taken from patent US10793892B2, “Method for detecting the presence of expanded spectrum β-lactamase-producing bacteria in a sample” (INSERM (INSTITUT NATIONAL DE LA SANTE ET DE LA RECHERCHE …, priority 2011, dated 2020).

Columns and labels:
Enterobacteriaceae = format: biochemical; details: all CTX-M producers (n=147); tazobactam added to cefotaxime well
Description: Strains were isolated on Mueller-Hinton agar (Biorad, Marnes-la-Coquette, France) and incubated at 37° C. for 16 h to 24 h before performing the NDP rapid ESBL test as follows. One calibrated inoculated loop (10 μl) of the tested strain was resuspended in 150 μl of 20 mM Tris-HCl lysis buffer previously distributed in Microbead tubes (Ultraclean Microbial DNA isolation kit Bead Tubes, MO BIO Laboratories, Carlsbad, USA). Mechanical lysis of bacteria was performed by strong agitation of Microbead tubes using a vortex adapter (MO BIO Laboratories) for 30 min at room temperature. This bacterial suspension was centrifuged at 10,000×g at room temperature for 5 min. Thirty μl of the supernatant was mixed in a well of a 96-well tray with 100 μl of a 1 ml solution made of 3 mg of purified cefotaxime sodium salt (Sigma-Aldrich, Saint-Quentin-Fallavier, France) in a pH 7.8 phenol red solution. […] The phenol red solution was made by taking 2 ml of a concentrated pH 8 phenol solution (made from a mixture of phenol red 0.5% in distilled water) to which 16.6 ml of distilled water was added. The pH value was then adjusted to a 7.8 value by adding drops of a 1 N NaOH solution. Mixture of the phenol red solution and the enzymatic suspension being tested was incubated at 37° C. for 30 min. Similarly, culture extracts were analyzed in wells containing cefotaxime and tazobactam (4 mg/ml). […]

E. coli = assay: Susceptibility testing, MIC by Etest; format: cell-based, Escherichia coli
Description: (§1) Susceptibility testing was performed by determining MIC values using the Etest® (AB bioMérieux; Solna, Sweden) on Mueller-Hinton agar plates at 37° C. and results were recorded according to US guidelines (CLSI), as updated in 2012 (2). The breakpoints for cefotaxime are susceptible (S)≤1 and resistant (R)≥4 μg/ml, and for ceftazidime S≤4 and R≥16 μg/ml.

K. pneumoniae = assay: Susceptibility testing, MIC by Etest; format: cell-based, Klebsiella pneumoniae
Description: as §1

E. cloacae = assay: Susceptibility testing, MIC by Etest; format: cell-based, Enterobacter cloacae
Description: as §1

C. freundii = assay: Susceptibility testing, MIC by Etest; format: cell-based, Citrobacter freundii
Description: as §1

E. aerogenes [1] = assay: Susceptibility testing, MIC by Etest; format: cell-based, Enterobacter aerogenes
Description: as §1

P. stuartii = assay: Susceptibility testing, MIC by Etest; format: cell-based, Providencia stuartii; details: P. stuartii TEM-24, n=1
Description: as §1

E. aerogenes [2] = assay: ESBL NDP test using spiked blood cultures; format: biochemical, Enterobacter aerogenes; parameters: key: (+) and (−) referred to color change being, red to yellow or unchanged, respectively; (+) and (−) referred to color change being, red to yellow or unchanged, respectively
Description: (§2) Strains were isolated on Mueller-Hinton agar (Biorad, Marnes-la-Coquette, France) and incubated at 37° C. for 16 h to 24 h before performing the NDP rapid ESBL test as follows. One calibrated inoculated loop (10 μl) of the tested strain was resuspended in 150 μl of 20 mM Tris-HCl lysis buffer previously distributed in Microbead tubes (Ultraclean Microbial DNA isolation kit Bead Tubes, MO BIO Laboratories, Carlsbad, USA). Mechanical lysis of bacteria was performed by strong agitation of Microbead tubes using a vortex adapter (MO BIO Laboratories) for 30 min at room temperature. This bacterial suspension was centrifuged at 10,000×g at room temperature for 5 min. Thirty μl of the supernatant was mixed in a well of a 96-well tray with 100 μl of a 1 ml solution made of 3 mg of purified cefotaxime sodium salt (Sigma-Aldrich, Saint-Quentin-Fallavier, France) in a pH 7.8 phenol red solution. […]. […] Similarly, culture extracts were analyzed in wells containing cefotaxime and tazobactam (4 mg/ml). […]
(§3) Rapid detection of ESBL producers was attempted from spiked blood cultures which positivity was assessed using the BactAlert blood culture system (bioMérieux). […] Spiked blood cultures were made of 1×10^3 CFU of each strain and incubated 24 to 48 h before a positivity of the blood culture was detected by the BactAlert system. […]

M. morganii = assay: ESBL NDP test using spiked blood cultures; format: biochemical, Morganella morganii; parameters: key: (+) and (−) referred to color change being, red to yellow or unchanged, respectively; (+) and (−) referred to color change being, red to yellow or unchanged, respectively
Description: as §2, §3

P. mirabilis = assay: ESBL NDP test using spiked blood cultures; format: biochemical, Proteus mirabilis; parameters: key: (+) and (−) referred to color change being, red to yellow or unchanged, respectively; (+) and (−) referred to color change being, red to yellow or unchanged, respectively
Description: Strains were isolated on Mueller-Hinton agar (Biorad, Marnes-la-Coquette, France) and incubated at 37° C. for 16 h to 24 h before performing the NDP rapid ESBL test as follows. One calibrated inoculated loop (10 μl) of the tested strain was resuspended in 150 μl of 20 mM Tris-HCl lysis buffer previously distributed in Microbead tubes (Ultraclean Microbial DNA isolation kit Bead Tubes, MO BIO Laboratories, Carlsbad, USA). Mechanical lysis of bacteria was performed by strong agitation of Microbead tubes using a vortex adapter (MO BIO Laboratories) for 30 min at room temperature. This bacterial suspension was centrifuged at 10,000×g at room temperature for 5 min. Thirty μl of the supernatant was mixed in a well of a 96-well tray with 100 μl of a 1 ml solution made of 3 mg of purified cefotaxime sodium salt (Sigma-Aldrich, Saint-Quentin-Fallavier, France) in a pH 7.8 phenol red solution. […]. The phenol red solution was made by taking 2 ml of a concentrated pH 8 phenol solution (made from a mixture of phenol red 0.5% in distilled water) to which 16.6 ml of distilled water was added. The pH value was then adjusted to a 7.8 value by adding drops of a 1 N NaOH solution. Mixture of the phenol red solution and the enzymatic suspension being tested was incubated at 37° C. for 30 min. Similarly, culture extracts were analyzed in wells containing cefotaxime and tazobactam (4 mg/ml). Other concentrations of tazobactam and other ß-lactamase inhibitors were tested giving less clear results (data not shown). […] This definition of test positivity will be applied throughout the study.
Rapid detection of ESBL producers was attempted from spiked blood cultures which positivity was assessed using the BactAlert blood culture system (bioMérieux). […] This inoculum was reached after 24-48 h incubation in this BactAlert system. Strains were inoculated into blood culture system in presence of 10 ml of sterile blood. […] Spiked blood cultures were made of 1×10^3 CFU of each strain and incubated 24 to 48 h before a positivity of the blood culture was detected by the BactAlert system. […]

For `CO/N=C(\C(=O)N[C@@H]1C(=O)N2C(C(=O)O)=C(COC(C)=O)CS[C@H]12)c1csc(N)n1` [CTX, cefotaxime], the “color of the wells” value (Enterobacteriaceae) was “turned from red to yellow”, the MICs range (E. coli; E. coli ACC-1, n=1, first line) was greater than 16 µg/mL and the MICs range (E. coli; E. coli ACC-1, n=1, second line) was greater than 16 µg/mL. For the same compound, the MICs range (E. coli; E. coli CMY-2, n=1) was greater than 16 µg/mL, the MICs range (E. coli; E. coli CTX-M-1, n=16) was greater than 16 µg/mL and the MICs range (E. coli; E. coli CTX-M-2, n=3) was greater than 16 µg/mL. The MICs range (E. coli; E. coli CTX-M-3, n=1) was greater than 16 µg/mL, the MICs range (E. coli; E. coli CTX-M-9, n=1) was greater than 16 µg/mL and the MICs range (E. coli; E. coli CTX-M-14, n=15) was greater than 16 µg/mL. It also gave an MICs range (E. coli; E. coli CTX-M-27, n=6) greater than 16 µg/mL, an MICs range (E. coli; E. coli CTX-M-28, n=1) greater than 16 µg/mL and an MICs range (E. coli; E. coli CTX-M-32, n=1) greater than 16 µg/mL. For the same compound, the MICs range (E. coli; E. coli CTX-M-97, n=1) was greater than 16 µg/mL, the MICs range (E. coli; E. coli DHA-1, n=1) was 0.25 µg/mL and the MICs range (E. coli; E. coli SHV-3, n=1) was 12 µg/mL. For the same compound, the MICs range (E. coli; E. coli SHV-12, n=1) was 0.75 µg/mL, the MICs range (E. coli; E. coli SHV-12, n=6) was greater than 16 µg/mL and the MICs range (E. coli; E. coli TEM-1 penicillinase, n=5) was 0.03 to 0.09 µg/mL. For the same compound, the MICs range (E. coli; E. coli TEM-12, n=1) was 0.5 µg/mL, the MICs range (E. coli; E. coli TEM-29, n=2) was 0.25 µg/mL and the MICs range (E. coli; E. coli TEM-133, n=1) was 0.19 µg/mL. The MICs range (E. coli; E. coli VEB-1, n=1) was 8 µg/mL, the MICs range (E. coli; E. coli Wild-type, no resistance, n=5) was 0.02 to 0.04 µg/mL and the MICs range (K. pneumoniae; K. pneumoniae CTX-M-3, n=1) was greater than 16 µg/mL. It also gave an MICs range (K. pneumoniae; K. pneumoniae CTX-M-14, n=3) greater than 16 µg/mL, an MICs range (K. pneumoniae; K. pneumoniae CTX-M-15, n=28) greater than 16 µg/mL and an MICs range (K. pneumoniae; K. pneumoniae DHA-1, n=1) greater than 16 µg/mL. For the same compound, the MICs range (K. pneumoniae; K. pneumoniae DHA-2, n=1) was greater than 16 µg/mL, the MICs range (K. pneumoniae; K. pneumoniae GES-1, n=1) was 0.5 µg/mL and the MICs range (K. pneumoniae; K. pneumoniae SHV-2a, n=2) was 1 µg/mL. For the same compound, the MICs range (K. pneumoniae; K. pneumoniae SHV-5, n=2) was greater than 16 µg/mL, the MICs range (K. pneumoniae; K. pneumoniae SHV-12, n=1) was 1 µg/mL and the MICs range (K. pneumoniae; K. pneumoniae SHV-12, n=2) was 2 to 8 µg/mL. For the same compound, the MICs range (K. pneumoniae; K. pneumoniae SHV-28, n=3) was greater than 16 µg/mL, the MICs range (K. pneumoniae; K. pneumoniae TEM-52, n=2) was greater than 16 µg/mL and the MICs range (K. pneumoniae; K. pneumoniae Wild-type penicillinase, n=2) was 0.02 to 0.03 µg/mL. It also gave an MICs range (E. cloacae; E. cloacae CTX-M-14, n=1) greater than 16 µg/mL, an MICs range (E. cloacae; E. cloacae CTX-M-15, n=17) greater than 16 µg/mL and an MICs range (E. cloacae; E. cloacae GES-5, n=1) greater than 16 µg/mL. For the same compound, the MICs range (E. cloacae; E. cloacae PER-1, n=1) was greater than 16 µg/mL, the MICs range (E. cloacae; E. cloacae SHV-5, n=1) was greater than 16 µg/mL and the MICs range (E. cloacae; E. cloacae TEM-3, n=2) was greater than 16 µg/mL. For the same compound, the MICs range (E. cloacae; E. cloacae VEB-1, n=1) was 16 µg/mL, the MICs range (E. cloacae; E. cloacae Wild-type, chromosome-encoded cephalosporinase, n=5) was 0.09 to 0.5 µg/mL and the MICs range (E. cloacae; E. cloacae, overexpressed chromosome-encoded cephalosporinase, n=2) was greater than 16 µg/mL. For the same compound, the MICs range (E. cloacae; E. cloacae, overexpressed chromosome-encoded cephalosporinase, n=3) was greater than 16 µg/mL, the MICs range (C. freundii; C. freundii CTX-M-15, n=3) was greater than 16 µg/mL and the MICs range (C. freundii; C. freundii TEM-3, n=1) was greater than 16 µg/mL. For the same compound, the MICs range (C. freundii; C. freundii Wild-type, chromosome-encoded cephalosporinase, n=1) was 0.12 µg/mL, the MICs range (E. aerogenes [1]; E. aerogenes TEM-24, n=6) was 0.5 to 8 µg/mL and the MICs range (E. aerogenes [1]; E. aerogenes TEM-121, n=1) was less than 0.06 µg/mL. For the same compound, the MICs range (E. aerogenes [1]; E. aerogenes Wild-type, chromosome-encoded cephalosporinase, n=1) was 0.094 µg/mL, the MICs range (P. stuartii) was 0.5 µg/mL and the “ESBL NDP Test from: Blood culture” value (E. aerogenes [2]; E. aerogenes BN 1113 0225, Wild-type) was “−”. The “ESBL NDP Test from: Blood culture” value (E. aerogenes [2]; E. aerogenes E2O15, TEM-121) was “+”, the “ESBL NDP Test from: Blood culture” value (M. morganii; M. morganii BG 1106 5902, Wild-type) was “−” and the “ESBL NDP Test from: Blood culture” value (M. morganii; M. morganii BG 1117 0617, Wild-type) was “−”. The “ESBL NDP Test from: Blood culture” value (P. mirabilis; P. mirabilis 09.128, TEM-52) was “+”, the “ESBL NDP Test from: Blood culture” value (P. mirabilis; P. mirabilis 09.177, TEM-21) was “+” and the “ESBL NDP Test from: Blood culture” value (P. mirabilis; P. mirabilis BIK, ACC-1) was “−”.
